Assay results published in patent US5565424A, “Superactive VIP antagonists” (Ramot - University Authority for Applied Research and …, priority 1994, dated 1996).
Non-standard residues stand in square brackets, D forms with d. Residues, ends and D or L forms follow the SMILES beside them. Nle = CCCC[C@H](N)C(=O)O

Assays:
[1] = tested on: dissociated mouse spinal cord cultures (neurons); assay: Neuronal survival in dissociated spinal cord cultures; type: cell-based
[2] = tested on: VIP-stimulated cAMP formation in astrocytes; assay: VIP-stimulated cAMP formation in cortical astrocyte cultures; type: cell-based, rat; details: 1 μM VIP, FIG. 2
Protocol: FIG. 2. VIP-stimulated cAMP formation was inhibited in the presence of the family of VIP antagonists. Cortical astrocyte cultures were incubated for 10 min with 1 μm VIP and cAMP accumulation was determined by radioimmunoassay (Gozes, et al., J. Pharmacol. & Exp. Therap., 257:959 (1991)). Increasing concentrations of the antagonists were placed in the astrocyte cultures 5 minutes prior to the addition of VIP. Astrocytes were maintained in 35 mm tissue culture dishes with 0.3 mg protein per dish. Each value is the mean of 8-10 determinations from 4 experiments. […] The error bar is the SEM.
In view of the foregoing, astroglia cells were utilized to compare the effects the VIP antagonists of the present invention have on VIP-stimulated cAMP formation. For cAMP determinations, the general protocols involve either the measurement of adenylate cyclase activity or, the use of radioimmunoassays for cAMP which utilize a cAMP determination kit from NEN (New England Nuclear, Boston, Mass.)36 previously described by Gozes, et al. (J. Pharmacol. Exp. Therap., 257:959 (1991)). An HCl (0.05M) extract neutralizecl with 0.5M NaOH may be utilized for the tests.
Rat astrocytes were maintained in cell culture as described above. The accumulation of cAMP was measured by radio-immunoassay (NEN kit, New England Nuclear) from cold trichloro acetic acid extracts (Evans et al., supra, 1984). […]

[3] = tested on: Sprague-Dawley rat pups, locomotive activity rhythm; assay: Circadian motor activity rhythms after chronic injection; type: in vivo; details: 5 μg/day subcutaneous, 28 days, newborn rat pups
Protocol: FIGS. 4(A-J). VIP antagonism disturbed the biological clock via a cAMP-mediated mechanism. Newborn rat pups (Sprague-Dawley, locally bread, Yoxheam, Israel) were chronically injected with VIP analogues (5 μg of each analogue/50 μl/day, subcutaneous), for 28 consecutive days. The vehicle of injection was either 0.01M acetic acid or 15% dimethylsulfoxide (for the lipophilic peptides). On day 21, the animals were placed each one in a separate cage and their locomotive activity was continuously measured. The pattern of locomotive activity was measured using an animal monitoring system with an infrared detector for 7 days (A, C, E, G, I). The spectral periods of rhythm in the activity data was detected by a special statistical method because of the short computer sampling period. […]
Animals were each placed in a separate cage and motor activity was continuously recorded for 6-9 days, using an animal monitoring system with an infrared detector. Spectral analysis of motor activity rhythms is then determined by the fitting of different cosine curves to the activity data (see, Mattes, et al., Chronobiology Int'l, 8:460 (1991)).

NCI-H1299 = details: for NSCLC colony formation (colonies): NCI-H1299, 1 μM addition, control 29 ± 3.1
NCI-H727 = details: for NSCLC colony formation (colonies): NCI-H727, 1 μM addition, control 35.2 ± 2.3
NCI-H226 = details: for NSCLC colony formation (colonies): NCI-H226, 1 μM addition, control 43.1 ± 5.7
[4] = tested on: cAMP (low affinity) VIP receptor on astroglia cells; assay: Displacement of 125I-VIP from astroglia cells; details: central nervous system, FIGS. 2 and 3
[5] = tested on: non-small cell lung cancer (NSCLC) cell lines; assay: NSCLC colony formation / cell growth, statements across cell lines
[6] = tested on: c-fos mRNA in NCIH810 cells; assay: c-fos mRNA assay; type: cell-based
Protocol: In addition, the ability of VIP and the S-hybrid VIP antagonist to stimulate c-fos mRNA was examined; c-fos mRNA is a marker for cancer cell proliferation. […] This is true regardless of whether the VIP antagonist is co-administered with VIP or added by itself (See, Table IV, infra).
^a NCIH810 cells were treated with the peptide and the cfos mRNA
determined after 1 hour.
For the c-fos experiments, SCLC cells were cultured with SIT medium containing 0.5% fetal bovine serum. After 4 hours, the cells were treated with stimuli such as 10 nM BN for 60 min. Total RNA was isolated using the guanidinium isothiocyanate (GIT) method. Ten μg of denatured RNA was separated in a 0.66M formaldehyde 1% agarose gel as previously described. The gel was treated with ethidium bromide tp assess RNA integrity. The RNA was blotted onto a nitrocellulose membrane overnight and the membrane hybridized with a c-fos probe labelled with ^32 P-dCTP using a Bethesda Research Laboratories random priming kit. The membrane was exposed to Kodax XAR-2 film at […] for 1 day and the autoradiogram developed. The autoradiogram were analyzed using a Molecular Dynamics densitometer.

[7] = tested on: neuroblastoma (NMB) cells; assay: Neuroblastoma (NMB) cell division by cell counts; type: cell-based, human
Protocol: FIG. 5. […] Neuroblastoma (NMB) cells have been grown in culture using RPMI-1640 medium supplemented with 10% fetal calf serum and gentamicin (100 μl of 40 mg/ml stock solution per 100 mL medium) in a humidified atmosphere of 5% CO2, 95% air. Cells were harvested with Puck's saline containing 0.25% trypsin and 0.02M EDTA every four days, centrifuged and seeded in 60 mm diameter tissue culture dishes (CORNING) at a density of 0.6-0.7×10^6 cells per dish.
For mitogenic assays, human NM cells were seeded in 35 mm diameter tissue culture dishes (CORNING) at a density of 0.2×10^6 cells per dish in RPMI-1640 medium plus 10% fetal calf serum. […] Cell counts were performed with a hemocytometer, using trypan blue staining for viability, on the second day (24 hours) after the VIP treatment. Results shown on the graph are cell/dish×1000. Error bars represent the standard error. Three-six replicates were counted for each data point and experiments were repeated three independent times.

[8] = tested on: neuroblastoma (NMB) cells; assay: Thymidine incorporation into neuroblastoma (NMB) cells; type: cell-based, human; details: 24 hours incubation, one day after seeding; read-out: EC50, stimulation of thymidine incorporation into NMB cells
[9] = tested on: VIP receptors on neuroblastoma (NMB) cells; assay: VIP binding and displacement on intact neuroblastoma (NMB) cells; design: species or system human
Protocol: Alternatively, the VIP was iodinated according to the procedure described by Werner, et al. (Biochem. Biophys. Res. Commun., 133:228-232 (1985)). […] Experiments were repeated at least three times, each containing triplicates, error bars represent the standard error. Cells were grown for 24 hours (circles) and 48 hours (triangles). […] The binding parameters were determined by ACCUFIT program, Lundon-2 competition analysis (LUNDON software Inc., Chargin Falls, Ohio, U.S.A.). […] The calculated Bmax was 6×10^-14 moles/mg and 1.5×10^-14 moles/mg for cells grown for 24 hours as compared to cells grown for 48 hours, respectively.

CCCC[C@H](NC(=O)[C@H](CCC(N)=O)NC(=O)[C@H](CCCCN)NC(=O)[C@H](CCCNC(=N)N)NC(=O)[C@H](CC(C)C)NC(=O)[C@H](CCCNC(=N)N)NC(=O)[C@@H](NC(=O)[C@H](Cc1ccc(O)cc1)NC(=O)[C@H](CC(N)=O)NC(=O)[C@H](CC(=O)O)NC(=O)[C@@H](NC(=O)[C@H](Cc1ccc(O)cc1)NC(=O)[C@@H]1CCCN1C(=O)[C@H](CCCNC(=N)N)NC(=O)[C@H](CCCNC(=N)N)NC(=O)[C@@H]1CCCN1C(=O)[C@@H](N)CCCCN)[C@@H](C)O)[C@@H](C)O)C(=O)N[C@@H](C)C(=O)N[C@H](C(=O)N[C@@H](CCCCN)C(=O)N[C@@H](CCCCN)C(=O)N[C@@H](Cc1ccc(O)cc1)C(=O)N[C@@H](CC(C)C)C(=O)N[C@@H](CC(N)=O)C(=O)N[C@@H](CO)C(=O)N[C@H](C(=O)N[C@@H](CC(C)C)C(=O)N[C@@H](CC(N)=O)C(N)=O)[C@@H](C)CC)C(C)C [NL-hybrid VIP antagonist] (H-KPRRPYTDNYTRLRKQ[Nle]AVKKYLNSILN-NH2)
fold more potent than the hybrid VIP antagonist at inducing neuronal cell death [1]: 10 fold | affinity for the VIP-neuronal survival associated receptor (in words) ([1]; central nervous system, FIG. 1): has an affinity for both | concentration of maximal effect on neuronal cell death ([1]; spinal cord cultures, FIG. 1): 10^-10 M | inhibition of VIP-induced cAMP formation (in words) [2]: effectively inhibits VIP-induced cAMP formation | effect on 24 hours periodicity of activity rhythm [3]: abolished this 24 hours periodicity | overall activity of the animals [3]: overall increase in the activity | inhibition of cell growth (NCI-H1299): 100% | NSCLC colony formation (colonies) (NCI-H1299): 0 | inhibition of cell growth (NCI-H727): 88% | NSCLC colony formation (colonies) (NCI-H727): 4.2 ± 3.1 | inhibition of cell growth (NCI-H226): 92% | NSCLC colony formation (colonies) (NCI-H226): 3.5 ± 2.5 | affinity for the cAMP (low affinity) VIP receptor (in words) [4]: has an affinity for both | potency relative to the hybrid antagonist in inhibiting tumor cell growth ([5]; two out of three NSCLC cell lines): ten-fold more potent

CC[C@H](C)[C@H](NC(=O)[C@H](CO)NC(=O)[C@H](CC(N)=O)NC(=O)[C@H](CC(C)C)NC(=O)[C@H](Cc1ccc(O)cc1)NC(=O)[C@H](CCCCN)NC(=O)[C@H](CCCCN)NC(=O)[C@@H](NC(=O)[C@H](C)NC(=O)[C@H](CCSC)NC(=O)[C@H](CCC(N)=O)NC(=O)[C@H](CCCCN)NC(=O)[C@H](CCCNC(=N)N)NC(=O)[C@H](CC(C)C)NC(=O)[C@H](CCCNC(=N)N)NC(=O)[C@@H](NC(=O)[C@H](Cc1ccc(O)cc1)NC(=O)[C@H](CC(N)=O)NC(=O)[C@H](CC(=O)O)NC(=O)[C@@H](NC(=O)[C@H](Cc1ccccc1)NC(=O)[C@@H](NC(=O)[C@H](C)NC(=O)[C@H](CC(=O)O)NC(=O)[C@H](CO)NC(=O)[C@@H](N)Cc1c[nH]cn1)C(C)C)[C@@H](C)O)[C@@H](C)O)C(C)C)C(=O)N[C@@H](CC(C)C)C(=O)N[C@@H](CC(N)=O)C(N)=O [VIP, Vasoactive intestinal polypeptide]
c-fos mRNA ([6]; 10 nM, NCIH810 cells, after 1 hour, NONE = 1.0): 5.6 | effect on c-fos mRNA (in words) ([6]; antagonist co-administered with VIP or added by itself): stimulates c-los mRNA | EC50 ([7]; 24 hour VIP treatment, added one day after seeding, read-out: EC50, stimulation of NMB cell division by cell counts): 500 nM | mitosis when added 48 hours after plating ([7]; additional 24 hours incubation): did not stimulate mitosis | concentration at peak of mitogenic activity ([7]; cell counts and thymidine incorporation, decreased thereafter): 1 µM | EC50 [8]: 500 nM | fold higher affinity in younger cells (24 hrs) compared with older cells (48 hrs) [9]: about 10 fold | NSCLC colony formation (colonies) (NCI-H1299): 55.8 ± 19.8 | NSCLC colony formation (colonies) (NCI-H727): 115 ± 22.7 | NSCLC colony formation (colonies) (NCI-H226): 87.4 ± 4.8 | stimulation of NSCLC colony formation in agar ([5]; index of cell growth): 2-3 fold
